For the assay, the target named is LRRK2 (Homo sapiens, UniProt Q5S007, G2019S). In words: loss of constitutive phosphorylation in cells. The class given is cell-based.
Chain of LRRK2 (Q5S007 whole entry G2019S): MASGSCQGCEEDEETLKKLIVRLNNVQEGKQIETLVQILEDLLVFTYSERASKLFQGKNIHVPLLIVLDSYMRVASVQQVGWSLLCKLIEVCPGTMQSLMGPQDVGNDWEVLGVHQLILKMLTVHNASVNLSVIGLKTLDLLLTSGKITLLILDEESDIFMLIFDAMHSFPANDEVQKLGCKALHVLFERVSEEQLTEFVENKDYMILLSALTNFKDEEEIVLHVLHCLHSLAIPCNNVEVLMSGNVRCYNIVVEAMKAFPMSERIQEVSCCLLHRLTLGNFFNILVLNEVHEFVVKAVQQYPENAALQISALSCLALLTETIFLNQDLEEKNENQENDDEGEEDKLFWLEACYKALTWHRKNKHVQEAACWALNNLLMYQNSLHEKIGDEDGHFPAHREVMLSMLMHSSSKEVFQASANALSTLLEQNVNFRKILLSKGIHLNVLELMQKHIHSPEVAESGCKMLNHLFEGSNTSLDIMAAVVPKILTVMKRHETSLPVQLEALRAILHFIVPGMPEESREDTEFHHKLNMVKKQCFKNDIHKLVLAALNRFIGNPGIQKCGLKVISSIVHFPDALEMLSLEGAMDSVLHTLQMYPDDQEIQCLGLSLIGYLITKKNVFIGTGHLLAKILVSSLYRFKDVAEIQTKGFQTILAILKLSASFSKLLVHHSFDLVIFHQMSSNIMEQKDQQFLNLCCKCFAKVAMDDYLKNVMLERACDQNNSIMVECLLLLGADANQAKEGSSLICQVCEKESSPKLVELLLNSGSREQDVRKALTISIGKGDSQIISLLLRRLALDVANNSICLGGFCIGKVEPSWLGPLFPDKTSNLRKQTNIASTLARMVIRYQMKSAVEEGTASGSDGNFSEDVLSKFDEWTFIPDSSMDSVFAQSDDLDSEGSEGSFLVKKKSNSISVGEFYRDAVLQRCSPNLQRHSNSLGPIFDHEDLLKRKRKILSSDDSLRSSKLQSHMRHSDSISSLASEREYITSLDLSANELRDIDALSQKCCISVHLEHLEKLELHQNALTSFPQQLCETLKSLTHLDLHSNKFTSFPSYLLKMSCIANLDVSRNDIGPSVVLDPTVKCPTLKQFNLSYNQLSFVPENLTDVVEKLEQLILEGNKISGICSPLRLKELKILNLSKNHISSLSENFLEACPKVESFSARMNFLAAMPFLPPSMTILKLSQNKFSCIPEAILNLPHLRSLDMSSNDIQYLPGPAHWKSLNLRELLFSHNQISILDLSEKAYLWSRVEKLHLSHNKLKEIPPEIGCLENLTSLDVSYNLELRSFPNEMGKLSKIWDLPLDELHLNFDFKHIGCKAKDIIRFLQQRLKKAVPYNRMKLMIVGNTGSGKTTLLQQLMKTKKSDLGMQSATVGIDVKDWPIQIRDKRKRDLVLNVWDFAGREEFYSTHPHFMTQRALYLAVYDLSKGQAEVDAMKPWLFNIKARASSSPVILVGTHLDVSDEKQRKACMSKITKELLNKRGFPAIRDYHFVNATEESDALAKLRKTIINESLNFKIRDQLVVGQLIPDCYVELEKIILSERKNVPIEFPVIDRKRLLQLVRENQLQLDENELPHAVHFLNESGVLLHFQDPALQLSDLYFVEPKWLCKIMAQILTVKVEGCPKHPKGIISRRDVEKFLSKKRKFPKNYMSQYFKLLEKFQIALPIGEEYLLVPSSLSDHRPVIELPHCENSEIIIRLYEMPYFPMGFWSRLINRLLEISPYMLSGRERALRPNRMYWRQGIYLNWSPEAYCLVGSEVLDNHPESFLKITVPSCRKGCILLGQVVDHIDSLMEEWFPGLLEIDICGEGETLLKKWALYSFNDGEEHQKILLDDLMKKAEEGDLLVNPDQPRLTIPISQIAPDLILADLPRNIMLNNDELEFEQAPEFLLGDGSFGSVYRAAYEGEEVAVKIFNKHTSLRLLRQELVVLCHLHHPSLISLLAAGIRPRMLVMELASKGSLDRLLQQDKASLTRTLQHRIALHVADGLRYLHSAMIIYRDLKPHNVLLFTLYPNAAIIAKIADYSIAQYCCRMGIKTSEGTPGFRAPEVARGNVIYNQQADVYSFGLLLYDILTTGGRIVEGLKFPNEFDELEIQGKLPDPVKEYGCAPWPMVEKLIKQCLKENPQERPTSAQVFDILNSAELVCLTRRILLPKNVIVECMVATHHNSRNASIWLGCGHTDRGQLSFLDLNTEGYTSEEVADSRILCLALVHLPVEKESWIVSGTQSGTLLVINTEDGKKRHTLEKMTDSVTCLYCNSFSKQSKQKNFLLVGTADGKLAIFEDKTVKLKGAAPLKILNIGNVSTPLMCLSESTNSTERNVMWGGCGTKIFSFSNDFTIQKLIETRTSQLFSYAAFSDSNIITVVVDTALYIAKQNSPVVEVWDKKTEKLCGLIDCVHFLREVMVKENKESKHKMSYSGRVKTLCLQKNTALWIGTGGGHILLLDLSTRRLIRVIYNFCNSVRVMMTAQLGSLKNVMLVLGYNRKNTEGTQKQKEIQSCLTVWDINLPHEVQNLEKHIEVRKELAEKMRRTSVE

For the compound `COc1cc(C(=O)N2CCC(N3CCN(C)CC3)CC2)ccc1Nc1ncc2c(n1)N(C)c1ccccc1C(=O)N2C` [LRRK2-IN1], the “loss of constitutive phosphorylation in cells” value is “The pathogenic G2019S mutation in the kinase domain is phosphorylated and sensitive to the effects of LRRK2-IN1”.

The values are drawn from article PMC4268884 (Nature communications, 2014).
